Earlier results in patent US20210316003A1 (Immunomedics, Inc., priority 2020, published 2021).
Read-outs that look alike come from different tables or passages of the source.

How the values were obtained:
[1] = system: patients with relapsed SCLC; conditions: cited from earlier work
SCLC patients = conditions: 28 SCLC patients; cited from earlier work
[2] = system: patients with recurrent SCLC; conditions: nivolumab alone; cited from earlier work
[3] = system: patients with advanced colorectal cancer; conditions: cited from earlier work
patients = conditions: single-agent therapy; cited from earlier work

Q: What does the source list for `CC[C@@]1(O)C(=O)OCc2c1cc1n(c2=O)Cc2cc3c(CN(C)C)c(O)ccc3nc2-1` [topotecan]?
A: Grade ≥3 anemia ([1]; SCLC, meta-analysis): 24%; Grade ≥3 neutropenia ([1]; SCLC, meta-analysis): 69%; Grade ≥3 thrombocytopenia ([1]; SCLC, meta-analysis): 1%; Patients who died from this chemotherapy ([1]; SCLC, meta-analysis): approximately 2%; Objective response rate ([1]; chemoresistant frontline SCLC patients): 5%; Objective response rate ([1]; chemosensitive SCLC patients): 17%; Median survival (SCLC patients): 5 months; One-year survival (SCLC patients): 3.5%; PR (SCLC patients): 11%

Q: With “Nivolumab: inhibitor of the T-cell checkpoint receptor PD-1” as the compound, how does the Response rate [2] read?
A: 10%

Q: Which Response ([3]; TDP1 IVS12+79 G/G genotype) does the source give for `CCc1c2c(nc3ccc(OC(=O)N4CCC(N5CCCCC5)CC4)cc13)-c1cc3c(c(=O)n1C2)COC(=O)[C@]3(O)CC` [irinotecan] here?
A: 64%

Q: What about the Response ([3]; TDP1 IVS12+79 T/T genotype) of the same compound?
A: 25%

Q: And the “Incidence of grade 3/4 neutropenia” value ([3]; TOP1 IVS4+61 A/A genotype (small sample size))?
A: 50%

Q: What about the “Incidence of grade 3/4 neutropenia” value ([3]; TOP1 IVS4+61 G/G genotype) of the same compound?
A: 8%

Q: What about the “Grade ≥3 events of early diarrhea” value (patients) of the same compound?
A: 8%

Q: What about the “Grade ≥3 events of late diarrhea” value (patients) of the same compound?
A: 31%
